Laboratory results from patent publication US6245738A, “Cytokine restraining agents” (Trega Biosciences, Inc., priority 1994, dated 2001).
Square brackets hold non-standard residues; d marks the D form. Peptide text beside a SMILES is read from it.

Tests used:
interleukin-6 (IL-6) = assay: Reduction of LPS-induced interleukin-6 levels in mice, IL-6-specific ELISA; format: in vivo, Balb/c mice; conditions: 300 μg/mouse (Table I), LPS treated mice; vs control mice
Procedure: Balb/c mice were grouped and treated as described in Example III, above. Blood samples were obtained from the orbital sinus at various times up to six hours and serum was collected and diluted as described above. A 100 μl aliquot was assayed for IL-6 levels using an IL-6-specific ELISA by a modification of the method of Starnes et al., J. Immunol. 145:4185-4194 (1990), which is incorporated herein by reference.
The mean (+/-SEM) IL-6 level in six mice from each group was determined and the percent reduction in IL-6 was calculated.

[1] = tested on: LPS-induced PMN infiltration in lungs; assay: Adult respiratory distress syndrome: PMN count in broncho-alveolar lavage after intratracheal LPS; format: in vivo, male Harlan Sprague-Dawley rats; conditions: 100 μg/kg ip at 0, 2 and 4 hr; lavage at 6 hr after intratracheal LPS 5 mg/kg
Procedure: These experiments were performed using a modification of the methods described by Ulich et al., Am. J. Pathol. 141:61-68 (1992) and by Wheelden et al., Lab. Animals 26:29-37 (1992), each of which is incorporated herein by reference. Male Harlan Sprague-Dawley rats were anesthetized using a mixture of 70 mg/kg ketamine and 6 mg/kg rompun injected ip. A 2-3 cm incision was made in the neck of each anesthetized rat and its trachea was exposed by blunt dissection of the surrounding soft tissue. The rats were suspended on a near vertical slab and intratracheal injections were performed by inserting into the exposed trachea, at a point 1 cm posterior to the larynx, a 25G×1/2 inch needle attached to a 1 cc syringe.
Each rat received 0.5 ml/kg of saline or 0.5 ml/kg of 10 mg/ml (5 mg/kg) LPS endotoxin via slow intratracheal administration. Immediately following administration of the LPS endotoxin, rats were injected ip with 1 ml/kg of either saline (control) or saline containing various concentrations of EX-2 (treated). The rats were maintained in the elevated position for 1-2 min to facilitate distribution of the LPS and saline into the lung. The incisions were closed and the rats were allowed to recover. […]
The total polymorphonuclear leukocytes (PMN; neutrophils) in the broncho-alveolar lavage fluid were counted in the EX-2-treated rats and compared with the number in the control rats.

[2] = tested on: IL-1β-induced hyperalgesia; assay: Interleukin-1β-induced hyperalgesia, paw pressure test; format: in vivo, adult male Sprague-Dawley rats; conditions: 1 μg ip, 20 min before intraplantar IL-1β; 2 hr after IL-1
Procedure: These experiments were performed using a modification of the methods described by Poole et al., Br. J. Pharmacol. 106:489-492 (1992); Follenfant et al., Br. J. Pharmacol. 98:41-43 (1989); and Randall and Sellito, Arch. Internatl. Pharmacodyn. 111:409-419 (1957), each of which is incorporated herein by reference. Adult male Sprague-Dawley rats (175-275 g) were tested for hyperalgesia by a paw pressure technique using variable pressure instrumentation (IITC Life Sciences; Woodland Hills, Calif.). Rats were acclimated to the housing environment and were handled for three days prior to beginning a training session. On the day before the hyperalgesia experiments was to begin, each rat was placed into a sock and two variable paw pressure tests were performed 15 min apart. […] Approximately 5-10% of the rats were non-responders and were eliminated from further experiments.
Animals that responded to the paw pressure were pretreated by ip injection of various concentrations of EX-2 in a volume of 1 ml/kg (treated) or saline, alone (control). After 20 min, 100 μl of IL-1β (1U/100 μl) was administered to rats via intraplantar injection. Two hr after IL-1 administration, rats were subjected to two additional paw pressure tests and the increase in mm Hg of pressure that could be applied to the EX-2-treated rats as compared to the control rats was determined.

LPS-induced lethality [3] = assay: Lipopolysaccharide-induced lethality (ip peptide); format: in vivo, adult female Balb/c mice; conditions: 11 × 300 μg/mouse ip (3.3 mg total), every 4 hr; 0.6 mg LPS
Procedure: These experiments were performed based on information reported by Rivier et al., Endocrinology 125:2800-2805 (1989), which is incorporated herein by reference. Adult female Balb/c mice were provided food and water ad libitum. Mice were injected ip every four hours for 40 hr with 30 to 300 μg EX-2 or EX-3 in 0.2 ml saline (treated group) or with 0.2 ml saline, alone (control group) (10 mice per group). Immediately following the first injection, 0.6 mg LPS endotoxin in 0.2 ml saline was administered to each mouse. Following LPS injection, EX-2 or saline was administered to the treated mice or the control mice, respectively, every 4 hr for 36 hr.

TNF-α [4] = assay: Reduction of LPS-induced TNF-α levels in mice (ip peptide), plasma ELISA; format: in vivo, Balb/c female mice; conditions: 1 min before 5 mg/kg LPS ip, vs control mice
Procedure: Balb/c female mice weighing approximately 20 g were placed into two groups, a control group and a treated group. Five mg/kg of LPS in 0.9% saline was administered by intraperitoneal (ip) injection into the control mice. Mice in the treated group were first injected ip with 30 μg EX-2 or 150 μg EX-3 in saline, then, one minute after EX-2 or EX-3 was administered, the mice received LPS as described for the control group.
Blood samples were collected from the orbital sinus of treated and control mice at various times up to four hours after LPS was administered. The plasma was separated by centrifugation at 3000×g for 5 min, then diluted with four volumes of 1× phosphate buffer saline (pH 7.4) containing 1% bovine serum albumin. A 100 μl sample of serum was assayed by ELISA for TNF-α (Genzyme; Cambridge Mass.).
The mean (+/-SEM) TNF-α level in six mice from each group was determined and the percent reduction in TNF levels was calculated.

[5] = tested on: arachidonic acid-induced ear swelling; assay: Arachidonic acid-induced ear swelling; format: in vivo, female Balb/c mice; conditions: 100 μg/mouse ip, 30 min prior to AA; 60 min after AA application
Procedure: Experiments were performed using female Balb/c mice weighing 18-23 grams. Saline or 100 μg EX-2 or EX-3 was administered ip, 30 min prior to topical application of arachidonic acid (AA). A 10 μl pipet was used to apply 10 μl AA solution (100 mg/ml ethanol; Calbiochem-Novabiochem; San Diego, Calif.) to the inner and outer surfaces of the right ear of each mouse. Ten μl ethanol, alone, was applied to the inner and outer surface of the left ear of each mouse. Ear thickness was measured with a hand-held spring loaded caliper immediately before and 60 min after AA application. Increase in ear thickness was calculated by subtracting the change observed in the control ear from the change observed in AA-treated ear. The value for each group (saline and control) is the average of the swelling observed in the individual mice in each group. The percent reduction of swelling is based on the swelling observed in the saline control group.

TNF-α [6] = assay: LPS-induced TNF-α levels, orally administered peptide (gavage); format: in vivo, Balb/c female mice; conditions: 1 min before 0.1 mg LPS ip
Procedure: The ability of orally administered cytokine restraining agents to reduce LPS-induced TNF-α levels also was examined. Balb/c female mice (20 g) were administered 150 μg or 300 μg EX-2, EX-3, EX-4 or EX-5 in 100 μl saline by gavage. Control mice received 100 μl saline, alone. One minute later, 0.1 mg LPS was administered by ip injection. Samples were collected and TNF-α levels were determined as described in Example III, above.
The mean TNF-α levels in the mice from each group (n=9-20) was determined and the percent reduction in TNF-α levels was calculated.

LPS-induced lethality [7] = assay: LPS-induced lethality, orally administered peptide (gavage); format: in vivo, adult female Balb/c mice; conditions: 0.6 mg LPS ip
Procedure: The LPS-induced lethality studies were performed based on information reported by Rivier et al., supra, 1989. Adult female Balb/c mice were provided food and water ad libitum. Mice were administered 150 μg or 300 μg EX-2, EX-3, EX-4 or EX-5 in 100 μl saline by gavage every 4 hr for 40 hr (total doses of 1.65 mg and 3.3 mg, respectively). Control mice received 100 μl saline, alone. Immediately following the first dose of cytokine restraining agent or saline, 0.6 mg LPS in 0.2 ml saline was administered by ip injection.

[8] = 3.3 mg total (300 μg by gavage every 4 hr for 40 hr)

Structure (SMILES) | Inhibition of LPS-induced Lethality (increase in survival) (LPS-induced lethality [3]) | Reduction in arachidonic acid-induced Ear Swelling [5] | percent reduction in TNF-α levels, oral (TNF-α [6]; 300 μg by gavage) | increase in survival, oral (LPS-induced lethality [7]; [8]) | further results
CCCC[C@H](NC(C)=O)C(=O)N[C@@H](CCC(N)=O)C(=O)N[C@@H](Cc1c[nH]cn1)C(=O)N[C@H](Cc1ccccc1)C(=O)N[C@@H](CCCNC(=N)N)C(=O)N[C@H](Cc1c[nH]c2ccccc12)C(=O)NCC(N)=O [EX-2, Ac-Nle-Gln-His-(D)Phe-Arg-(D)Trp-Gly-NH2] | 83% | 72% | – | – | Reduction in IL-6 levels (interleukin-6 (IL-6)): 60%; Reduction in LPS-induced PMN Count [1]: 58%; Reduction in IL-1-induced Hyperalgesia (increase in tolerated paw pressure) [2]: 125%; Reduction in TNF levels (TNF-α [4]; 30 μg/mouse ip): 50%
CC(=O)N[C@H](C(=O)N[C@@H](CCC(N)=O)C(=O)N[C@@H](Cc1c[nH]cn1)C(=O)N[C@H](Cc1ccccc1)C(=O)N[C@@H](CCCNC(=N)N)C(=O)N[C@H](Cc1c[nH]c2ccccc12)C(=O)NCC(N)=O)C1CCCCC1 [EX-3, Ac-(cyclohexyl)Gly-Gln-His-(D)Phe-Arg-(D)Trp-Gly-NH2] | 86% | 62% | 40% | – | percent reduction in TNF-α levels, oral (TNF-α [6]; 150 μg by gavage): 49%; Reduction in TNF levels (TNF-α [4]; 150 μg/mouse ip): 56%
CC(=O)N[C@@H](Cc1c[nH]cn1)C(=O)N[C@H](Cc1ccccc1)C(=O)N[C@@H](CCCNC(=N)N)C(=O)N[C@H](Cc1c[nH]c2ccccc12)C(=O)NCC(N)=O [EX-4, Ac-His-(D)Phe-Arg-(D)Trp-Gly-NH2] (Ac-H[dF]R[dW]G-NH2) | – | – | 44% | 63% | –
CC(=O)N[C@@H](Cc1c[nH]cn1)C(=O)N[C@H](Cc1ccccc1)C(=O)N[C@@H](CCCNC(=N)N)C(=O)N[C@H](Cc1c[nH]c2ccccc12)C(N)=O [EX-5, Ac-His-(D)Phe-Arg-(D)Trp-NH2] | – | – | – | 44% | increase in survival, oral (LPS-induced lethality [7]; 1.65 mg total (150 μg by gavage every 4 hr for 40 hr)): 68%
